Columns and labels:
Assay in all cases: biochemical
Set-up in all cases: AlphaScreen histone demethylase activity assay
[1] = molecular target: JARID1B (KDM5B) (Homo sapiens, UniProt Q9UGL1); settings: read-out: KDM5B pIC50 (converted)
Text: (§1) A base‐mediated 5‐endo‐trig cyclization of a C‐2‐substituted aromatic imine afforded the racemic indoline core with two adjacent stereocenters. Subsequent acylation of the indoline ring system conferred stability towards oxidation and provided a handle for modulating polarity. Finally, metal‐catalysed cross‐coupling of the aryl bromide provided access to a variety of linkers between the indoline core and pyrrolidine capping group. In total, 45 racemic compounds were synthesized, and IC50 values for inhibition of KDM2A were determined using two orthogonal enzyme activity assays: AlphaScreen25 and RapidFire MS26 (see Section S3.1 in the Supporting Information for complete inhibition data). Key structure–activity relationships are summarized below (Scheme 1 B, compounds 2–12). […] In immunofluorescence assays using HeLa cells ectopically expressing catalytically active KDM2A, a dose‐dependent increase in H3K36me2 staining was observed upon incubation with (S,S)‐6, reflecting augmented cellular H3K36me2 levels (Figure 2 A and Section S3.3). […] To profile its selectivity, (S,S)‐6 was tested for inhibitory activity against a panel of KDMs, methyllysine binding motifs, and epigenetic enzymes.

[2] = molecular target: T1, JMJD2D (KDM4D) (Homo sapiens, UniProt Q6B0I6)
T1 sequence (Q6B0I6 1-523): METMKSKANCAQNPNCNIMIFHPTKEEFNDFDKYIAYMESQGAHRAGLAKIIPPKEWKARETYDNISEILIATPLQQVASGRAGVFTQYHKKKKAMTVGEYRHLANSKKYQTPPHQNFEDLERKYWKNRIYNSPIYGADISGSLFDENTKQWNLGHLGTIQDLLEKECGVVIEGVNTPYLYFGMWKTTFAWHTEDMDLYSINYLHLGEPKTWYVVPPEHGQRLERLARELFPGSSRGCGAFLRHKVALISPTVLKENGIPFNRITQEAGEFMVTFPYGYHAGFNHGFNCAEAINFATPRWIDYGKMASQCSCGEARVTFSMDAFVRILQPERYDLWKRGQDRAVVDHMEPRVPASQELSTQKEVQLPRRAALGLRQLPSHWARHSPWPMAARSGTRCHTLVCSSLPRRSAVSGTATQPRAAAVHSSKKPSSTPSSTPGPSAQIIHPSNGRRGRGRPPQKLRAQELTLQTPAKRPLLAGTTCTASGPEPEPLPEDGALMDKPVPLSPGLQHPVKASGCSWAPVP
Text: as §1

[3] = molecular target: T2, JMJD1A (KDM3A) (Homo sapiens, UniProt Q9Y4C1)
T2 sequence (Q9Y4C1 1-1321): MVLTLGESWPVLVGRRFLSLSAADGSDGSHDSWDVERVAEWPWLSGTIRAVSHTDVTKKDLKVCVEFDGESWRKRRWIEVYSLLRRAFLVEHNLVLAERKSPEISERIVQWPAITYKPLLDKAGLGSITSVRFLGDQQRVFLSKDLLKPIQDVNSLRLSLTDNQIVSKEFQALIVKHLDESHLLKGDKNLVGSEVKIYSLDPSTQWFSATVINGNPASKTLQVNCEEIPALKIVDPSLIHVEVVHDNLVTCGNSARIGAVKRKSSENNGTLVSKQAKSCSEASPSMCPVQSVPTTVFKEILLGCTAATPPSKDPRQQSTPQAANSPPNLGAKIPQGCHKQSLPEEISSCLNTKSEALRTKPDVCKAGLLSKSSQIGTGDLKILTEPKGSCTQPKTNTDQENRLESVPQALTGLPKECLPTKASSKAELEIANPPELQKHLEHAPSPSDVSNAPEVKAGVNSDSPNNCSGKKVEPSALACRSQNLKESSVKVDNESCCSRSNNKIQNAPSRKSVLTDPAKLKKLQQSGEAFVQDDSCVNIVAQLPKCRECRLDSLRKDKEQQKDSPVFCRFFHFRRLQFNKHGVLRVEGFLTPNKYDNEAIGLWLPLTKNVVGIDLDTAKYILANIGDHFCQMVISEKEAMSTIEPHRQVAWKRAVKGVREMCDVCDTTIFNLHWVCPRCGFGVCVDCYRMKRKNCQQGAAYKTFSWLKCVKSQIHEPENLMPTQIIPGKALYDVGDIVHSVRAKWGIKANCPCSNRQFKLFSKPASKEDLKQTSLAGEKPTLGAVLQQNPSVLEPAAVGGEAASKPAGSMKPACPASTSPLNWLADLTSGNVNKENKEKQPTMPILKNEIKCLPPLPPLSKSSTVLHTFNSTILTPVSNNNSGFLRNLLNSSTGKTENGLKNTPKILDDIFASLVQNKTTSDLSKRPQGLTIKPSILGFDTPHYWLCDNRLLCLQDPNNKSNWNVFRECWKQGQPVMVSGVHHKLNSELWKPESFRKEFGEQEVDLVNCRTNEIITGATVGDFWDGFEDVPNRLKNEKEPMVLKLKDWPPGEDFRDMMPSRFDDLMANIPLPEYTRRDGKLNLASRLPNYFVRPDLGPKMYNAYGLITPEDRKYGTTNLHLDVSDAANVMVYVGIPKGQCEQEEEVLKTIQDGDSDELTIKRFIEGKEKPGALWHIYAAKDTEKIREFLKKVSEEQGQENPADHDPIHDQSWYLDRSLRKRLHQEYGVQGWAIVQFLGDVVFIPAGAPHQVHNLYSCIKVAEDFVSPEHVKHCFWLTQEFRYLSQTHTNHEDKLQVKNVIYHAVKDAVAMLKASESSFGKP
Text: as §1

Chain of JARID1B (KDM5B) (Q9UGL1 whole entry): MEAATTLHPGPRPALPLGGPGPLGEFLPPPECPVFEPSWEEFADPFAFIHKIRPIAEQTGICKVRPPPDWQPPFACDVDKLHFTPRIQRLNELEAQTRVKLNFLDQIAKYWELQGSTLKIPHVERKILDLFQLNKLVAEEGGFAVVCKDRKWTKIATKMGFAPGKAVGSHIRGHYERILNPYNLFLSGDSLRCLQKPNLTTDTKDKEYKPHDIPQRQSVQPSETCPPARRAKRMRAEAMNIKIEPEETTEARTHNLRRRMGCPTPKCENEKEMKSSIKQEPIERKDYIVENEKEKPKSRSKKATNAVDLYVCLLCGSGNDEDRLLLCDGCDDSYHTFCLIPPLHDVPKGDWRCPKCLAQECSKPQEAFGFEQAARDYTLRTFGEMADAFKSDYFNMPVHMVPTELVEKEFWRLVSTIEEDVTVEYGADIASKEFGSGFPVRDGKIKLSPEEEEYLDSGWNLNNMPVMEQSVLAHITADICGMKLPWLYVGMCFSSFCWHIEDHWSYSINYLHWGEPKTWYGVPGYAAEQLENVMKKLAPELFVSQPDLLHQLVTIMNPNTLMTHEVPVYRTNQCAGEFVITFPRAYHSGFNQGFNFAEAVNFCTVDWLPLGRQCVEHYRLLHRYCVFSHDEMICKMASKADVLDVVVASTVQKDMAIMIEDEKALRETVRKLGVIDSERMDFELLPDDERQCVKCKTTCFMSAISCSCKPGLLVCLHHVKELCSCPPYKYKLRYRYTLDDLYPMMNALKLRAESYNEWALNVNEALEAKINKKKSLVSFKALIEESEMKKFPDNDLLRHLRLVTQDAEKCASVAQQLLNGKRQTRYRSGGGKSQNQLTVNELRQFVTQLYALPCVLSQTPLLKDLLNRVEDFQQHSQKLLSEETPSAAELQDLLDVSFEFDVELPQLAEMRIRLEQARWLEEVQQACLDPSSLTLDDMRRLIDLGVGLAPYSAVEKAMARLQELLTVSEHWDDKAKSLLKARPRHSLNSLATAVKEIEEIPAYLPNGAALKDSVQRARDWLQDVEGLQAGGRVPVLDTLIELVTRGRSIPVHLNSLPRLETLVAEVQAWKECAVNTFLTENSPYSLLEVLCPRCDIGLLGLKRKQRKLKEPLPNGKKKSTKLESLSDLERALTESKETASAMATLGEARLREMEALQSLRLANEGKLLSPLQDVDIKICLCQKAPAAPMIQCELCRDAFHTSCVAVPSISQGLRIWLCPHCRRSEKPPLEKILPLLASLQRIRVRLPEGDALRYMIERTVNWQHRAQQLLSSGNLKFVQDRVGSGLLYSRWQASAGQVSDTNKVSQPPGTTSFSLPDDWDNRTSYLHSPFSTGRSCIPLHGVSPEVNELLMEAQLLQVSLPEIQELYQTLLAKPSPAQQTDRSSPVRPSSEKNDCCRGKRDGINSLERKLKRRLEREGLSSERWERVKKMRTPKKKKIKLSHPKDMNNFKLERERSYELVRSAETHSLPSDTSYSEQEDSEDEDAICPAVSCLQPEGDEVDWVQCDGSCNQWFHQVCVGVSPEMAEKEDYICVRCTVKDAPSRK

- IC50 [1]: 13.1 µM
- inhibition at 10 µM [2]: 22.6%
- IC50 ([2]; read-out: KDM4D pIC50 (converted)): > 100 µM
- inhibition at 100 µM [3]: 35.4%
- IC50 ([3]; read-out: KDM3A pIC50 (converted)): > 100 µM
SMILES: CC(=O)N1c2ccccc2[C@@](C#N)(c2ccccc2)[C@@H]1c1cncc(CCCCCCCN2CCCC2)c1 [(S,S)-6]
